Values after ≈ are worked out from the molar mass of the structure shown. Where two headings read alike, the source gives them in different places.
Test: Solubility of the solid-state forms in organic solvents
Format: physicochemical
Settings: for solubility: organic solvent or mixture

SMILES | solubility (methyl t-butyl ether, read-out: solubility in methyl t-butyl ether) [mg/mL] | solubility (acetone, room temperature (approximately 22° C.), read-out: solubility in acetone) [mg/mL] | solubility in acetone (acetone, room temperature (approximately 22° C.)) | solubility in methyl t-butyl ether (methyl t-butyl ether) [mg/mL]
CS(=O)(=O)CC(=O)N1CC2(C1)OCc1cc(C3=NO[C@@](c4cc(Cl)c(F)c(Cl)c4)(C(F)(F)F)C3)ccc12 [Form A, (S)-1-(5′-(5-(3,5-dichloro-4-fluorophenyl)-5-(trifluoromethyl)-4,5-dihydroisoxazol-3-yl)-3′H-spiro[azetidine-3,1′-isobenzofuran]-1-yl)-2-(methylsulfonyl)ethanone] | 11 (≈ 18.9 mM) | > 300 |  | 
CS(=O)(=O)CC(=O)N1CC2(C1)OCc1cc(C3=NOC(c4cc(Cl)c(F)c(Cl)c4)(C(F)(F)F)C3)ccc12 (racemic) [crystal racemate, (S/R)-1-(5′-(5-(3,5-dichloro-4-fluorophenyl)-5-(trifluoromethyl)-4,5-dihydroisoxazol-3-yl)-3′H-spiro[azetidine-3,1′-isobenzofuran]-1-yl)-2-(methylsulfonyl)ethanone] |  |  | less than 10 mg/mL | < 1

Reference: US9200003B2, “Crystalline forms of 1-(5′-(5-(3,5-dichloro-4-fluorophenyl)-5-(trifluoro-methyl)-4,5-dihydroisoxazol-3-yl)-3′H-spiro[azetidine-3,1′-isobenzofuran]-1-yl)-2-(methylsulfonyl) ethanone” (Zoetis Services LLC, priority 2012, dated 2015)
